Calls of active or inactive are those of the source. The calls are words filed in the database; no cut-off is given here.
Tests used:
[1] = Time within which only 10% of the drug was degraded; type: ADME; details: pH 4.50, room temperature
Oryctolagus cuniculus [2] = assay: Average IOP after administration was determined; type: functional
Oryctolagus cuniculus [3] = assay: Compound was tested for decrease in IOP (in vivo); 18% reduction of the control 21.4+/-0.3 mmHg; type: functional
Oryctolagus cuniculus [4] = assay: Compound was tested for decrease in IOP for 2-3 h (in vivo); Significant reduction was observed; type: functional, organism-based

Structure (SMILES) | t0.9 [1] [days] | Average IOP (Oryctolagus cuniculus [2]) [mmHg] | Activity (Oryctolagus cuniculus [3]) [mmHg] | Activity (Oryctolagus cuniculus [4])
C=CCc1ccccc1OC/C(CNC(C)C)=N\O | 44 | 21.8 | – | –
C=CCc1ccccc1OC/C(CNC(C)C)=N\OC | 75 | 21.4 | 3.8 | –
C=CCc1ccccc1OCC(O)CNC(C)C (configuration not stated) [ALPRENOLOL] | – | 20.6 | – | Active
